According to paper PMC12692861, “Biotin-Linked Ursolic Acid Conjugates as Selective Anticancer Agents and Target-Identification Tools for Cancer Therapy” (Molecules, 2025):

Legend:
T24 cells = assay: ROS estimation with H2DCFDA; type: cell-based, human; conditions: T24, 24 h, all tested concentrations (5–40 µM)
Procedure: (§1) Since 5c was not toxic to non-tumorigenic cells, such as MCF12A and UROtsa, these cells were excluded from experiments aimed at identifying the broad mechanism of cytotoxicity. A common mechanism by which these antioxidants induce cytotoxicity in tumor cells is by generating Reactive Oxygen Species (ROS) selectively in fast-growing tumor cells. The levels of ROS generated by 5c exposed cells were evaluated with the oxidation of 2′,7′-dichlorodihydrofluorescein diacetate (H2DCFDA). It is a cell-permeant fluorescent probe used for detecting ROS production (Thermo Scientific Inc., Waltham, MA, USA). […] Figure 3 illustrates the quantification of intracellular ROS levels in four bladder cancer cell lines, 5637, T24, HT-1376, and MB49, following treatment with UA and its biotin-conjugated derivative, compound 5c.
(§2) The relative levels of intracellular ROS produced in untreated and drug-treated cells were analyzed by fluorimetry using the fluorescent probe H2DCFDA (Sigma-Aldrich, #D6883, St. Louis, MI, USA), as described previously. Briefly, cells cultured in a 96-well plate at 1 × 10^4 cells per well were treated with drugs of interest for 24 h rinsed with sterile PBS to remove excess drugs, and incubated with 10 μM DCFDA for 30 min at 37 °C and 5% CO2. Following three rinses with PBS, the fluorescence intensity was recorded at excitation: 485/20, emission: 528/20 using a BioTek Synergy HTX Multimode fluorescence plate reader (Agilent Technologies, Inc., Santa Clara, CA, USA), and the data were represented as percentage change compared to the respective untreated control.
(§3) Figure 3 Estimation of oxidative stress: Treatment with UA or 5c increased ROS levels in various bladder cancer cells. ROS levels were estimated at 24 h using DCFDA. The relative fluorescence unit (RFU) was normalized to that observed in untreated cells and expressed as a percent increase. Data are Means ± SD, (n = 4). Relative significance, expressed as p-value are calculated based on one-way ANOVA.

MB49 = assay: Cell cycle phase fractionation by flow cytometry (PI); type: cell-based, murine; conditions: MB49, 24 h, mean ± SD n=3
Description: Cells treated with some antiproliferative drugs are blocked from orderly progression from one stage of their mitotic cycle to the next due to inhibition of a specific stage of the cell cycle. Analysis by flow cytometry (FC) of DNA content in the nuclei of drug-treated cells is a well-established technique for evaluating the fractions of cells in each stage of the cell cycle based on their DNA content. In this study, we employed FC to examine whether treatment with UA or 5c affects the orderly cell cycle progression from G0/G1, S, and G2M before entering Mitosis (M). Figure 6 represents the effect of UA and 5c on cell cycle progression in four bladder cancer cell lines, 5637, HT-1376, T-24, and MB-49, after a […] treatment at a concentration of 12 µM. Following the treatment, nuclei suspensions from treated cells were prepared by direct cell lysis in a hypotonic solution, with simultaneous staining with PI (100 µg/mL). The resulting nuclei suspension and the samples were run on the flow cytometer and analyzed for DNA content.
Cells cultured in 35 mm diameter, 6-well cluster plates (Corning Inc., Corning, NY, USA) overnight at a density of 0.3 × 10^6 cells/well, and treated with various compounds at selected concentrations for 24 h. After completion of treatment, cells were washed twice with PBS, followed by the addition of Propidium Iodide (PI) containing […] solution [(0.1 mg/mL PI), 50mg Na-citrate, 15 µL of IGEPAL CA-630], 1 mL in each well, and incubated for 30–45 min at 37 °C and 5% CO2. After that data acquired using the NovoCyte Quanteon Flow Cytometer was analyzed using NovoExpress software (version 1.6.1).

MCF-12A = assay: MTT assay, non-tumorigenic breast epithelial cell line; type: cell-based, human; conditions: for IC50: Homo sapiens, MCF-12A, MTT, 72 h, non-tumorigenic cells, read-out: IC50 (Mean ± SD), MCF-12A
Procedure: The synthesized hybrid conjugates 5a–d were evaluated for their antiproliferative activity against the established human bladder cancer cell lines T24 and 5637. Test compounds were dissolved in ultrapure dimethyl sulfoxide (DMSO), diluted in cell culture media, added to cells cultured in 96-well cluster wells, and incubated for 72 h. The concentration of DMSO in culture media was maintained at < 0.05%. As previously reported, the fraction of viable cells in the culture wells was compared to that in cultures with 0.05% DMSO-only using a colorimetric assay, the Methyl Tetrazolium Bromide (MTT) reduction assay. We determined the selectivity index (SI) of the compounds 5a–d against tumor cells by comparing their cytotoxicity to that of a non-tumorigenic breast epithelial cell line, MCF-12A, as well as a non-tumorigenic, immortalized urothelial cell line, UROtsa (Table 1, and Figure 2).
The antiproliferative activities of various compounds examined in this report were measured using the MTT (3-[4,5-dimethylthiazol-2-yl]-2,5-diphenyl-tetrazolium bromide) reduction assay, as previously described. Briefly, cells were seeded at 2 × 10^3 cells per well in a 96-well plate and cultured overnight. The cells were then treated with different doses (5 µM, 10 µM, 15 µM, 20 µM, 25 µM, 30 µM, 35 µM, 40 µM in DMSO) for 72 h. Viability of the treated cultures was estimated by conversion of MTT to the insoluble formazan after 3h incubation at 37 °C and 5% CO2. The purple-colored formazan crystals were dissolved in DMSO, and absorbance was recorded at wavelengths 570/640 nm using the Bio-Rad Benchmark Plus Microplate Reader. The percent of viable cells was calculated ODtreated cells/ODcontrol cell wells × 100.

MB49 cells = assay: ROS estimation with H2DCFDA; type: cell-based, murine; conditions: MB49, 24 h; for ROS levels: 5–40 µM
Procedure: as §1, §2, §3

SMILES: C[C@H]1[C@H](C)CC[C@]2(C(=O)O)CC[C@]3(C)C(=CC[C@@H]4[C@@]5(C)CC[C@H](O)C(C)(C)[C@@H]5CC[C@]43C)[C@H]12 [UA, Ursolic acid]
- ROS levels (T24 cells): comparable increases in ROS levels
- Cell-Cycle Phase-Fractions G1 (MB49): 59.75 ± 0.77 % of total
- Cell-Cycle Phase-Fractions G2/M (MB49): 19.12 ± 1.09 % of total
- Cell-Cycle Phase-Fractions S (MB49): 21.13 ± 1.49 % of total
- IC50 (MCF-12A): 56.4 ± 7.6 µM
- ROS levels (MB49 cells): concentration-dependent increase in ROS levels

SMILES: CC1CCC2(C(=O)OCCCCOC(=O)CCCCC3SCC4NC(=O)NC43)CCC3(C)C(=CCC4C5(C)CCC(O)C(C)(C)C5CCC43C)C2C1C [Compound 5c, 4-((5-((3aS,4S,6aR)-2-Oxohexahydro-1H-thieno [3,4-d]imidazol-4-yl)pentanoyl)oxy) butyl 3-hydroxy-urs-12-en-28-oate]
- ROS levels (T24 cells): comparable increases in ROS levels
- Cell-Cycle Phase-Fractions G1 (MB49): 53.52 ± 1.25 % of total
- Cell-Cycle Phase-Fractions G2/M (MB49): 18.43 ± 0.69 % of total
- Cell-Cycle Phase-Fractions S (MB49): 28.05 ± 0.56 % of total
- IC50 (MCF-12A): 83.11 ± 0.3 µM
- toxicity to non-tumorigenic cells (MCF-12A; MCF12A): not toxic
- ROS levels (MB49 cells): concentration-dependent increase in ROS levels
- ROS response relative to UA (MB49 cells; 30–40 µM): more robust ROS response
